# In ChEMBL document CHEMBL5661983, “The selective anaplastic lymphoma receptor tyrosine kinase inhibitor ASP3026 induces tumor regression and prolongs survival in non-small cell lung cancer model mice” (Mol Cancer Ther, 2014):
# pIC50: −log10 of the molar value. Active and inactive are the calls of the source. The calls are words filed in the database; no cut-off is given here.
# Legend:
# [1] = biological target: T1, ALK tyrosine kinase receptor (Homo sapiens, UniProt Q9UM73); test: Inhibition of ALK phosphorylation in human NCI-H2228 cells assessed as phosphorylated ALK level at 10 nmol/L measured after 4 hrs by Western blot analysis relative to control; assay type: cell-based; set-up: scale not given: the % may be the effect or the level left
# Target sequence in this assay (Q9UM73 19-1620 limits assumed): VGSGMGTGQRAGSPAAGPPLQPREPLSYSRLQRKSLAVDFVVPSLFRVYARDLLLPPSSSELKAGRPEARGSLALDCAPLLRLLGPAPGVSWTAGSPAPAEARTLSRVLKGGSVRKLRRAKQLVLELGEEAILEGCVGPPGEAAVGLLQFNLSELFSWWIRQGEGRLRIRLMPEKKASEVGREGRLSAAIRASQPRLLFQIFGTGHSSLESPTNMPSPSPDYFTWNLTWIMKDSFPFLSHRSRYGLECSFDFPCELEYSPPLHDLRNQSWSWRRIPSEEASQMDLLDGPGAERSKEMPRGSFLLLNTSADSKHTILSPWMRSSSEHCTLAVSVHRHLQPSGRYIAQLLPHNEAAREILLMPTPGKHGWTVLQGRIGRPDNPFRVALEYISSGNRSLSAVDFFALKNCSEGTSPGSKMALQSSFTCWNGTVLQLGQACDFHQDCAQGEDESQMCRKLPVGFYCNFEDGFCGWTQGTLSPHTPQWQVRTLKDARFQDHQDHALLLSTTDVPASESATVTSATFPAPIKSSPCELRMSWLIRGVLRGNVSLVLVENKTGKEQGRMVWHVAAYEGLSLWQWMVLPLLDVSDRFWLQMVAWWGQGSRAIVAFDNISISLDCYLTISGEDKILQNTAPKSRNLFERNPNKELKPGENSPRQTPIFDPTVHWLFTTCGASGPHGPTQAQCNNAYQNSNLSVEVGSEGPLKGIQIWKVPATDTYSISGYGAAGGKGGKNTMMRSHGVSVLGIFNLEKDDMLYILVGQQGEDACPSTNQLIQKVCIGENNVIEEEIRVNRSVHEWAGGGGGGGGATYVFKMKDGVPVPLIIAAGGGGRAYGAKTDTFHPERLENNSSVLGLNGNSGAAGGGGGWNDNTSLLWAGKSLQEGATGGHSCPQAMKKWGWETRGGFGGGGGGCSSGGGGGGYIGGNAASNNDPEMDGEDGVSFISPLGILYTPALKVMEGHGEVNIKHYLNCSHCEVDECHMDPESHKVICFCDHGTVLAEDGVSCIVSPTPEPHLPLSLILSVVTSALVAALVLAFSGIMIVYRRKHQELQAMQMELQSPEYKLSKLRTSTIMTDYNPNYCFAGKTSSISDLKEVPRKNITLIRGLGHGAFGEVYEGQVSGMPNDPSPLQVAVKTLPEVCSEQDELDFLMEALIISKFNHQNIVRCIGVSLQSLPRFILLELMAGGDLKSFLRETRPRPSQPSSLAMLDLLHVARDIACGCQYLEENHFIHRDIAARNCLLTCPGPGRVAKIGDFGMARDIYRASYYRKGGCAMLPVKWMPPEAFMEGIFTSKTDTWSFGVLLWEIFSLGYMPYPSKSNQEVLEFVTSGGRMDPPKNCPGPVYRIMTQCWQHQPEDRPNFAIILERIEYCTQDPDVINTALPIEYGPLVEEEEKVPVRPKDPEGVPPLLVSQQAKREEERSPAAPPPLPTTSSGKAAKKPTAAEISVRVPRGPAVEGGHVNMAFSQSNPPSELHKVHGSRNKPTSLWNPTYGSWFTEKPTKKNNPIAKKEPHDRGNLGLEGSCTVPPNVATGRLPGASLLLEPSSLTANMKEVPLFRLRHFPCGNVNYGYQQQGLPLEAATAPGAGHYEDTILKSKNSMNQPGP
# [2] = biological target: T1, ALK tyrosine kinase receptor; test: Inhibition of ALK in human NCI-H2228 cells assessed as reduction in ERK phosphorylation by measuring phosphorylated ERK level at 100 nmol/L measured after 4 hrs by Western blot analysis relative to control; assay type: cell-based; set-up: scale not given: the % may be the effect or the level left
# Target sequence in this assay (Q9UM73 19-1620 limits assumed): as above
# [3] = biological target: T1, ALK tyrosine kinase receptor; test: Inhibition of ALK in human NCI-H2228 cells assessed as reduction in STAT3 phosphorylation by measuring phosphorylated STAT3 level at 10 nmol/L measured after 4 hrs by Western blot analysis relative to control; assay type: cell-based; set-up: scale not given: the % may be the effect or the level left
# Target sequence in this assay (Q9UM73 19-1620 limits assumed): as above
# [4] = biological target: Tyrosine-protein kinase receptor UFO (Homo sapiens, UniProt P30530)
# Sequence of Tyrosine-protein kinase receptor UFO (P30530 whole entry): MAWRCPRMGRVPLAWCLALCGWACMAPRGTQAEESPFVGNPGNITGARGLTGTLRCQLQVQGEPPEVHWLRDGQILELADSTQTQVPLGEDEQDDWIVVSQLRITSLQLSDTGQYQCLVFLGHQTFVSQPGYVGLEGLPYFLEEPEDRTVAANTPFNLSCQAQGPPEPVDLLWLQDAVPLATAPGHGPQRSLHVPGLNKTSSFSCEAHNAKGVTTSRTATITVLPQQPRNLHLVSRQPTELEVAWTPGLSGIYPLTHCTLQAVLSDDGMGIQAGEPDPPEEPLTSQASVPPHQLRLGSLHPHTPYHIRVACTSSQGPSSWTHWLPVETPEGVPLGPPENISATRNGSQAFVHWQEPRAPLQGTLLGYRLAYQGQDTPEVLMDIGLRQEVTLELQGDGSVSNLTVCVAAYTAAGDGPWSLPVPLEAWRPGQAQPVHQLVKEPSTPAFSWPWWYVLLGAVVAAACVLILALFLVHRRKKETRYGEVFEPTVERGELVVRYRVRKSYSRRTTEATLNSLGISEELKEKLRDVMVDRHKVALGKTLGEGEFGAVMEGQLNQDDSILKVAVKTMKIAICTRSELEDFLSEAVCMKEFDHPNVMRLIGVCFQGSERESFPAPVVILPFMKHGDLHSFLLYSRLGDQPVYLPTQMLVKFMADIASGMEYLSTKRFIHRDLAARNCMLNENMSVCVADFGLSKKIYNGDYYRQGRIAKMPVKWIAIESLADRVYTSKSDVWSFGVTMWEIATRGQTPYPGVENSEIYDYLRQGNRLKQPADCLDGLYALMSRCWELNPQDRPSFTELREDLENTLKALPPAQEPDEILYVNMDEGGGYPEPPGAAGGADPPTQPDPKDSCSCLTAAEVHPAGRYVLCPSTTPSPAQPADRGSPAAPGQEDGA
# [5] = biological target: NPM/ALK (Nucleophosmin/ALK tyrosine kinase receptor) (Homo sapiens, UniProt Q9UM73)
# Sequence of NPM/ALK (Nucleophosmin/ALK tyrosine kinase receptor) (Q9UM73 whole entry): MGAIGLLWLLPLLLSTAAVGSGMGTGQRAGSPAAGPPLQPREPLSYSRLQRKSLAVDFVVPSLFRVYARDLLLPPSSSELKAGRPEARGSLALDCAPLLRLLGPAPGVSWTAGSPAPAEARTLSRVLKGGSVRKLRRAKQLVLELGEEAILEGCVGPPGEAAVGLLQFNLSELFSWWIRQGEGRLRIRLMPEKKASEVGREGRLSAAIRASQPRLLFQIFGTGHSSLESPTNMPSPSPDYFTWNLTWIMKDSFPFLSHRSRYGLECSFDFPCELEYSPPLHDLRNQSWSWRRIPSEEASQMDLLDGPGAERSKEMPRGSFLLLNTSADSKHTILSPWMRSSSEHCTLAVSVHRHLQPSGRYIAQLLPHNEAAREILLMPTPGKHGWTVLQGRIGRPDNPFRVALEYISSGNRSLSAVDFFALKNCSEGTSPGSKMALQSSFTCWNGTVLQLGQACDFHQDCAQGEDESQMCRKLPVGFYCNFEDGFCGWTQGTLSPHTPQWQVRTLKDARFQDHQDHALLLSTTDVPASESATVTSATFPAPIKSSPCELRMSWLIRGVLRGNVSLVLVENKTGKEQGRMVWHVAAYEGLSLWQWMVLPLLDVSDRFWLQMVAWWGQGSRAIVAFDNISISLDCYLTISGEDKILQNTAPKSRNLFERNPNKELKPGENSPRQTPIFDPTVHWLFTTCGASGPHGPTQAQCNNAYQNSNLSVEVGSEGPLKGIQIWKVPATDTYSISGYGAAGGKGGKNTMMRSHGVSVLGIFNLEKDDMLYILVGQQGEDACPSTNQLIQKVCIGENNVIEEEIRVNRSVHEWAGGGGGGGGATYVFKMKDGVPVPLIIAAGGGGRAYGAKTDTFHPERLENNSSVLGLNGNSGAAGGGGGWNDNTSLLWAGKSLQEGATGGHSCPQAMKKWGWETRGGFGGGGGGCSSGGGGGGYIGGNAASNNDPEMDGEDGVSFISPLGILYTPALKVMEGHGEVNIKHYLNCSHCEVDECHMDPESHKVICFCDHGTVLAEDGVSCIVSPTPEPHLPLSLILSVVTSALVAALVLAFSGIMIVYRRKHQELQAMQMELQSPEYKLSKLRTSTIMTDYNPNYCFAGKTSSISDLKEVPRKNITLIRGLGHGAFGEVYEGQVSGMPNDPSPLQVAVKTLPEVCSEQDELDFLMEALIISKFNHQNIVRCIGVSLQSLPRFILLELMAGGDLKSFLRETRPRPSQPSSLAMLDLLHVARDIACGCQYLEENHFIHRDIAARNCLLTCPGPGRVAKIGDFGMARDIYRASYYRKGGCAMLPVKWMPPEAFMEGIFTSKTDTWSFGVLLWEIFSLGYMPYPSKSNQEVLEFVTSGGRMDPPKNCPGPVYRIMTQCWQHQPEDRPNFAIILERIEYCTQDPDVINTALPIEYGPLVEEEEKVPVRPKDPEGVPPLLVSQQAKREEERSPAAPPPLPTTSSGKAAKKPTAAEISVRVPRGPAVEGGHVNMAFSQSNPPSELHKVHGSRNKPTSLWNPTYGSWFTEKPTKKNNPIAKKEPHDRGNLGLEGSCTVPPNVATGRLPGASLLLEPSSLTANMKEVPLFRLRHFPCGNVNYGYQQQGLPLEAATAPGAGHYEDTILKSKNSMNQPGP
# Sequence of NPM/ALK (Nucleophosmin/ALK tyrosine kinase receptor) (P06748 whole entry, further chain): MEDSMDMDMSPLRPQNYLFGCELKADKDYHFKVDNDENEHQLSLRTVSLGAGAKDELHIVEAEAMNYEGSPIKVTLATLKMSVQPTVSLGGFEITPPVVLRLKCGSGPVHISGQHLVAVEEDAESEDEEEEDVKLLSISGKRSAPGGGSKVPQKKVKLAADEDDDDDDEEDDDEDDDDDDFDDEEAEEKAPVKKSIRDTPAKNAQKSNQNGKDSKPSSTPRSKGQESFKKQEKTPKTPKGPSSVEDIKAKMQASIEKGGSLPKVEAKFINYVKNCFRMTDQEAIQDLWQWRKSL
# Mus musculus = test: Antitumor activity against hEML4-ALK transgenic C57BL/6J mouse assessed as reduction in pulmonary tumor size at 30 to 100 mg/kg, po administered daily for 10 days and measured on day 7 and 11 by computed tomography scan analysis; assay type: functional, organism-based; conditions: dose 30-100 mg/kg, time 7-11 day
# [6] = AUC (0 to 24 hrs) in human NCI-H2228 cell xenografted NOD.CB17-Prkdcscid/J mouse tumor at 1 mg/kg/day for 5 days by HPLC-MS analysis; assay type: ADME, organism-based, Neoplasm; conditions: in vivo, po, 120 h, time 5 day
# [7] = biological target: Tyrosine-protein kinase receptor TYRO3 (Homo sapiens, UniProt Q06418)
# [8] = Ratio of Cmax in human NCI-H2228 cell xenografted NOD.CB17-Prkdcscid/J mouse tumor to plasma at 1 mg/kg/day for 5 days by HPLC-MS analysis; assay type: ADME, organism-based; conditions: tumor and plasma, route po, time 5 day
# NCI-H2228 [9] = test: Antitumor activity against human NCI-H2228 cells xenografted in NOD.CB17-Prkdcscid/J mouse assessed as tumor regression at 10 mg/kg, po administered once daily for 2 weeks relative to control; assay type: functional
# NCI-H2228 [10] = test: Antitumor activity against human NCI-H2228 cells xenografted in NOD.CB17-Prkdcscid/J mouse assessed as tumor regression at 1 mg/kg, po administered once daily for 2 weeks relative to control; assay type: functional
# [11] = biological target: Tyrosine-protein kinase Mer (Homo sapiens, UniProt Q12866)
# [12] = biological target: T1, ALK tyrosine kinase receptor
# Target sequence in this assay (Q9UM73 whole entry): as the sequence (Q9UM73 whole entry) above
# [13] = Tmax in human NCI-H2228 cell xenografted NOD.CB17-Prkdcscid/J mouse tumor at 3 mg/kg/day for 5 days by HPLC-MS analysis; assay type: ADME, organism-based, Neoplasm; conditions: route po, time 5 day
# NCI-H2228-Luc = test: Antitumor activity against human NCI-H2228-Luc cells intrahepatically xenografted in NOD.CB17-Prkdcscid/J mouse assessed as reduction in tumor burden by measuring bioluminescence emission at 30 mg/kg, po administered once daily for 3 weeks starting from 14 days post-cell inoculation and measured on day 14 by bioluminescent imaging analysis (reference value: 3.3 x 10^8 photon/sec); assay type: functional; conditions: time 14 day
# [14] = Tmax in human NCI-H2228 cell xenografted NOD.CB17-Prkdcscid/J mouse plasma at 10 mg/kg/day for 5 days by HPLC-MS analysis; assay type: ADME, organism-based; conditions: route po, time 5 day
# [15] = AUC (0 to 24 hrs) in human NCI-H2228 cell xenografted NOD.CB17-Prkdcscid/J mouse plasma at 3 mg/kg/day for 5 days by HPLC-MS analysis; assay type: ADME, organism-based; conditions: route po, time 5 day
# [16] = Cmax in human NCI-H2228 cell xenografted NOD.CB17-Prkdcscid/J mouse plasma at 3 mg/kg/day for 5 days by HPLC-MS analysis; assay type: ADME, organism-based; conditions: route po, time 5 day
# in vivo = conditions: NOD.CB17-Prkdcscid/J, mouse, tumour, po, 10 mg/kg
# [17] = Ratio of drug level in tumor to plasma of hEML4-ALK transgenic C57BL/6J mouse at 10 to 100 mg/kg, po administered daily for 10 days and measured 24 hrs post-last dose; assay type: ADME, organism-based; conditions: dose 10-100 mg/kg, time 11 day
# EML4-ALK = EML4-ALK (Homo sapiens, UniProt Q9UM73); assay type: cell-based, BaF3
# Description: Inhibition of EML4-ALK (unknown origin) transformed in mouse BaF3 cells by HTRF assay
# [18] = AUC (0 to 24 hrs) in human NCI-H2228 cell xenografted NOD.CB17-Prkdcscid/J mouse plasma at 10 mg/kg/day for 5 days by HPLC-MS analysis; assay type: ADME, organism-based; conditions: route po, time 5 day
# [19] = AUC (0 to 24 hrs) in human NCI-H2228 cell xenografted NOD.CB17-Prkdcscid/J mouse plasma at 1 mg/kg/day for 5 days by HPLC-MS analysis; assay type: ADME, organism-based; conditions: route po, time 5 day
# [20] = AUC (0 to 24 hrs) in human NCI-H2228 cell xenografted NOD.CB17-Prkdcscid/J mouse tumor at 10 mg/kg/day for 5 days by HPLC-MS analysis; assay type: ADME, organism-based, Neoplasm; conditions: in vivo, po, 120 h, time 5 day
# [21] = biological target: T1, ALK tyrosine kinase receptor; test: Inhibition of ALK in human NCI-H2228 cells assessed as reduction in STAT3 phosphorylation by measuring phosphorylated STAT3 level at 1000 nmol/L measured after 4 hrs by Western blot analysis relative to control; assay type: cell-based; set-up: scale not given: the % may be the effect or the level left
# Target sequence in this assay (Q9UM73 19-1620 limits assumed): as the sequence (Q9UM73 19-1620 limits assumed) above
# NCI-H2228 [22] = test: Antitumor activity against human NCI-H2228 cells xenografted in NOD.CB17-Prkdcscid/J mouse assessed as tumor growth inhibition at 10 mg/kg, po administered once daily for 2 weeks relative to control; assay type: functional; conditions: NCI-H2228, 336 h, read-out: TGI
# NCI-H2228 [23] = test: Antitumor activity against human NCI-H2228 cells xenografted in NOD.CB17-Prkdcscid/J mouse assessed as tumor growth inhibition at 1 mg/kg, po administered once daily for 2 weeks relative to control; assay type: functional; conditions: NCI-H2228, 336 h, read-out: TGI
# [24] = Selectivity ratio of IC50 for inhibition of EML4-ALK L1196M mutant (unknown origin) expressed in mouse 3T3 cells assessed as growth inhibition to IC50 for Inhibition of EML4-ALK (unknown origin) expressed in mouse 3T3 cells assessed as growth inhibition; set-up: species or system Homo sapiens; conditions: condition non-small cell lung carcinoma
# Ephrin type-A receptor 6 = Ephrin type-A receptor 6 (Homo sapiens, UniProt Q9UF33)
# Ephrin type-A receptor 2 = Ephrin type-A receptor 2 (Homo sapiens, UniProt P29317)
# [25] = Tmax in human NCI-H2228 cell xenografted NOD.CB17-Prkdcscid/J mouse tumor at 10 mg/kg/day for 5 days by HPLC-MS analysis; assay type: ADME, organism-based, Neoplasm; conditions: route po, time 5 day
# [26] = biological target: Non-receptor tyrosine-protein kinase TNK1 (Homo sapiens, UniProt Q13470)
# [27] = Cmax in human NCI-H2228 cell xenografted NOD.CB17-Prkdcscid/J mouse plasma at 10 mg/kg/day for 5 days by HPLC-MS analysis; assay type: ADME, organism-based; conditions: route po, time 5 day
# [28] = AUC (0 to 24 hrs) in human NCI-H2228 cell xenografted NOD.CB17-Prkdcscid/J mouse tumor at 3 mg/kg/day for 5 days by HPLC-MS analysis; assay type: ADME, organism-based, Neoplasm; conditions: in vivo, po, 120 h, time 5 day
structure (smiles),measurement,setting,value
COc1cc(N2CCC(N3CCN(C)CC3)CC2)ccc1Nc1ncnc(Nc2ccccc2S(=O)(=O)C(C)C)n1 [ASP-3026],Activity,[1],70%
same,Activity,[2],54%
same,Activity,[3],88%
same,pIC50,[4],< 7.00
same,pIC50,[5],8.17
same,Activity,Mus musculus,Active
same,AUC,[6],13600 ng·h/g
same,pIC50,[7],< 6.00
same,Kp at 120 h,[8],19
same,Activity,NCI-H2228 [9],45%
same,Activity,NCI-H2228 [10],0%
same,pIC50,[11],< 6.00
same,pIC50,[12],8.46
same,Tmax,[13],4 h
same,Activity,NCI-H2228-Luc,4.2 10^6No_unit
same,Tmax,[14],4 h
same,AUC at 120 h,[15],1820 ng·h/mL
same,Cmax,[16],140 ng/mL
same,Kp at 120 h,in vivo,20
same,Kp at 264 h,[17],> 100
same,pIC50,EML4-ALK,8.00
same,AUC at 120 h,[18],5990 ng·h/mL
same,AUC at 120 h,[19],630 ng·h/mL
same,AUC,[20],121000 ng·h/g
same,Activity,[21],46%
same,inhibition in vivo at 10 mg/kg,NCI-H2228 [22],> 100%
same,inhibition in vivo at 1 mg/kg,NCI-H2228 [23],69%
same,Ratio IC50,[24],3.9
same,pIC50,Ephrin type-A receptor 6,< 6.00
same,pIC50,Ephrin type-A receptor 2,< 6.00
same,Tmax,[25],4 h
same,pIC50,[26],7.57
same,Cmax,[27],508 ng/mL
same,AUC,[28],34400 ng·h/g
